Broadly, the IC50 is the point on the concentration scale where inhibition reaches its midpoint.

Among the data in patent US20130196986A1 (priority 2010, published 2013) are IC50 values, retold here.

For this assay, the target named is T1, P2X7 receptor (Homo sapiens, UniProt Q99572).
T1 construct: stably expressing the full length P2X7 receptor; expressed in transfected cells
T1 sequence (Q99572 1-595): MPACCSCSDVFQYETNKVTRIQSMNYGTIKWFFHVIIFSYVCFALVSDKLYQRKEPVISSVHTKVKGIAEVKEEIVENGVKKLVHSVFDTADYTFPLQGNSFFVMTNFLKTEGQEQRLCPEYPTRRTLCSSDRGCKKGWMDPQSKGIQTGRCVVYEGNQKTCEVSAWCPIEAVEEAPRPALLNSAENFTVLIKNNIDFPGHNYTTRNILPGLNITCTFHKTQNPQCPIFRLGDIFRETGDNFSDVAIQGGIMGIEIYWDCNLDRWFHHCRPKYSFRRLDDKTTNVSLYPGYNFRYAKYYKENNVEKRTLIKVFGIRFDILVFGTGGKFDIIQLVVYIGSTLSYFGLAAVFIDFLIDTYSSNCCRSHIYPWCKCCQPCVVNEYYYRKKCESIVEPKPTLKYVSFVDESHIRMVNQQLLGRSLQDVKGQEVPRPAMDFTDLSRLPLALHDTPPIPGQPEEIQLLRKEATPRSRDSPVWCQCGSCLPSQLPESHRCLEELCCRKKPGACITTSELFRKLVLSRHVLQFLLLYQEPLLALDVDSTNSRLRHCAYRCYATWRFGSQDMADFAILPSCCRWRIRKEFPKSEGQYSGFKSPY
The assay is described as follows: Ca++ flux assay (FLIPR) in P2X7-HEK-293 cell line stably expressing the full length P2X7 receptor, Bz-ATP activation. It is filed as cell-based. Particulars: P2X7-HEK-293 cells; agonist Bz-ATP; fluorescence as total area over 90 seconds; read-out: P2X7 Ca Flux hu IC50. The method, boiled down: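 HEK-293 cells stably expressing full-length P2X7 were loaded with Ca++-sensitive dye for 1 h, with compound added during loading. Cells were stimulated with Bz-ATP on FLIPR. Fluorescence was integrated as total area over 90 s, and IC50 was taken as 50% inhibition of the maximal Ca++ response.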

Turning to `Cc1c(Cl)cccc1-n1ccn2c(S(=O)(=O)Cc3ccccc3-c3ccccc3)nnc2c1=O` [Compound 155, 3-(biphenyl-2-ylmethylsulfonyl)-7-(3-chloro-2-methylphenyl)-[1,2,4]triazolo[4,3-a]pyrazin-8(7H)-one], the IC50 stood at 53.2 nM.
Then `Cc1c(Cl)cccc1-n1ccn2c(S(=O)(=O)Cc3cccc(Cl)c3)nnc2c1=O` [Compound 156, 7-(3-chloro-2-methylphenyl)-3-(3-chlorobenzylsulfonyl)-[1,2,4]triazolo[4,3-a]pyrazin-8(7H)-one], with 119 nM; and `Cc1c(Cl)cccc1-n1ccn2c(S(=O)(=O)Cc3ccc(Cl)cc3)nnc2c1=O` [Compound 157, 7-(3-chloro-2-methylphenyl)-3-(4-chlorobenzylsulfonyl)-[1,2,4]triazolo[4,3-a]pyrazin-8(7H)-one], with 136 nM; and `Cc1c(Cl)cccc1-n1ccn2c(S(=O)(=O)Cc3ccccc3N3CCOCC3)nnc2c1=O` [Compound 158, 7-(3-chloro-2-methylphenyl)-3-(2-morpholinobenzylsulfonyl)-[1,2,4]triazolo[4,3-a]pyrazin-8(7H)-one], with 189 nM.
On to `Cc1c(-n2ccn3c(S(=O)(=O)Cc4cccc5c4-c4ccccc4C5)nnc3c2=O)cccc1C(F)(F)F` [Compound 159, 3-((9H-fluoren-4-yl)methylsulfonyl)-7-(2-methyl-3-(trifluoromethyl)phenyl)-[1,2,4]triazolo[4,3-a]pyrazin-8(7H)-one], for which the IC50 amounted to 1130 nM.
Next, `Cc1onc(-c2ccccc2)c1CS(=O)(=O)c1nnc2c(=O)n(-c3cccc(C(F)(F)F)c3C)ccn12` [Compound 160, 7-(2-methyl-3-(trifluoromethyl)phenyl)-3-((5-methyl-3-phenylisoxazol-4-yl)methylsulfonyl)-[1,2,4]triazolo[4,3-a]pyrazin-8(7H)-one]: 284 nM; `Cc1c(Cl)cccc1-n1ccn2c(S(=O)(=O)Cc3cc(Cl)cc(Cl)c3)nnc2c1=O` [Compound 161, 7-(3-chloro-2-methylphenyl)-3-(3,5-dichlorobenzylsulfonyl)-[1,2,4]triazolo[4,3-a]pyrazin-8(7H)-one]: 335 nM.
On to `Cc1c(Cl)cccc1-n1ccn2c([S+]([O-])Cc3cc(Cl)cc(Cl)c3)nnc2c1=O` (centres unmarked) [Compound 162, 7-(3-chloro-2-methylphenyl)-3-(3,5-dichlorobenzylsulfinyl)-[1,2,4]triazolo[4,3-a]pyrazin-8(7H)-one], for which the IC50 came to 335 nM.
Next, `Cc1c(-n2ccn3c(S(=O)(=O)CC(=O)c4ccccc4)nnc3c2=O)cccc1C(F)(F)F` [Compound 163, 7-(2-methyl-3-(trifluoromethyl)phenyl)-3-(2-oxo-2-phenylethylsulfonyl)-[1,2,4]triazolo[4,3-a]pyrazin-8(7H)-one]: 3110 nM; `Cc1c(-n2ccn3c(S(=O)(=O)Cc4ccccc4-c4ccc(C(F)(F)F)cc4)nnc3c2=O)cccc1C(F)(F)F` [Compound 164, 7-(2-methyl-3-(trifluoromethyl)phenyl)-3-((4′-(trifluoromethyl)biphenyl-2-yl)methylsulfonyl)-[1,2,4]triazolo[4,3-a]pyrazin-8(7H)-one]: 629 nM.
`Cc1c(-n2ccn3c(S(C)(=O)=O)nnc3c2=O)cccc1C(F)(F)F` [Compound 165, 7-(2-methyl-3-(trifluoromethyl)phenyl)-3-(methylsulfonyl)-[1,2,4]triazolo[4,3-a]pyrazin-8(7H)-one]: the IC50 amounted to 5680 nM.
Then `Cc1c(Cl)cccc1-n1ccn2c(NCc3ccccc3-c3ccccc3)nnc2c1=O` [Compound 166, 3-(biphenyl-2-ylmethylamino)-7-(3-chloro-2-methylphenyl)-[1,2,4]triazolo[4,3-a]pyrazin-8(7H)-one], with 585 nM; and `Cc1c(Cl)cccc1-n1ccn2c(NC(c3ccccc3)c3ccccc3)nnc2c1=O` [Compound 167, 3-(benzhydrylamino)-7-(3-chloro-2-methylphenyl)-[1,2,4]triazolo[4,3-a]pyrazin-8(7H)-one], with 1040 nM.
On to `Cc1c(Cl)cccc1-n1ccn2c(NCCc3ccccc3)nnc2c1=O` [Compound 168, 7-(3-chloro-2-methylphenyl)-3-(phenethylamino)-[1,2,4]triazolo[4,3-a]pyrazin-8(7H)-one], for which the IC50 was determined as 3150 nM.
Then `Cc1c(Cl)cccc1-n1ccn2c(N(C)Cc3ccccc3)nnc2c1=O` [Compound 169, 3-(benzyl(methyl)amino)-7-(3-chloro-2-methylphenyl)-[1,2,4]triazolo[4,3-a]pyrazin-8(7H)-one], with 1590 nM.
Next, `Cc1c(Cl)cccc1-n1ccn2c(N(Cc3ccccc3)Cc3ccccc3)nnc2c1=O` [Compound 170, 7-(3-chloro-2-methylphenyl)-3-(dibenzylamino)-[1,2,4]triazolo[4,3-a]pyrazin-8(7H)-one]: 106 nM; `Cc1c(Cl)cccc1-n1ccn2c(N(Cc3ccccc3)CC3CC3)nnc2c1=O` [Compound 171, 3-(benzyl(cyclopropylmethyl)amino)-7-(3-chloro-2-methylphenyl)-[1,2,4]triazolo[4,3 - a]pyrazin-8(7H)-one]: 229 nM.
